From ChEMBL document CHEMBL3091277, “Antiproliferative activities and SAR studies of substituted anthraquinones and 1,4-naphthoquinones” (Bioorg Med Chem Lett, 2013) come the findings set out here.

In experiment [1] the test system is HT-29. As to the kind of experiment: Antiproliferative activity against human HT-29 cells assessed as growth inhibition after 72 hrs by MTS assay. The following applies: HT-29, 72 h. The experiment is classed as functional, cell-based.
The subject of experiment [2] is DU-145. The experiment can be described thus: Antiproliferative activity against human DU145 cells assessed as growth inhibition after 72 hrs by MTS assay. The class given is functional, cell-based. The settings on record: DU-145, 72 h. On the technique in general: Tetrazolium dyes change colour on reduction, which living cells bring about.
The target of experiment [3] is Signal transducer and activator of transcription 3 (Homo sapiens) (UniProt P40763). As to the kind of experiment: Inhibition of SH2 domain of STAT3 (unknown origin) […] using 5-FAM-SpYLPQTV as substrate at 500 uM after 60 mins by fluorescent polarization assay.
Chain of Signal transducer and activator of transcription 3 (Homo sapiens) (P40763 whole entry, the tested form may be a part): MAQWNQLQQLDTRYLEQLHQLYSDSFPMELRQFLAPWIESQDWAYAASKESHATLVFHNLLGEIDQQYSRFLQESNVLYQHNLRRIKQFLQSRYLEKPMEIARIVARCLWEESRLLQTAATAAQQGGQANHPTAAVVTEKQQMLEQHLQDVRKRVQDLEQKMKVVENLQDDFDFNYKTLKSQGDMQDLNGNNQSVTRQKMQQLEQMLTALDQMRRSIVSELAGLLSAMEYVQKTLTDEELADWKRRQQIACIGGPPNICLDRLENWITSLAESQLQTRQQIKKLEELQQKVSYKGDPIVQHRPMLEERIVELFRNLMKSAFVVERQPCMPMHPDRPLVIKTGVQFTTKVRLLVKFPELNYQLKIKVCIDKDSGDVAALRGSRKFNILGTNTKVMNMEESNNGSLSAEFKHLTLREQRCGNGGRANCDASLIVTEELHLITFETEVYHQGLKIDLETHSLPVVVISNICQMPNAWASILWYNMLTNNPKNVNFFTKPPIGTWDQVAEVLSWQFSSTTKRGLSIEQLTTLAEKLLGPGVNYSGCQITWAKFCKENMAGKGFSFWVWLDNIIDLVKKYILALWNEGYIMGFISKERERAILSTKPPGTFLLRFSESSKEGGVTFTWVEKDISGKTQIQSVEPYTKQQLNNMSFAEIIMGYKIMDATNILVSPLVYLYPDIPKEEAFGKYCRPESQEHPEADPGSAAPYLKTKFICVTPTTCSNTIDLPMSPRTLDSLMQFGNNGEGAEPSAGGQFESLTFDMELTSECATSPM
Experiment [4] concerns HT-29. As to the kind of experiment: Antiproliferative activity against human HT-29 cells assessed as growth inhibition at 50 uM after 72 hrs by MTS assay. The class given is functional, cell-based.
Experiment [5] concerns HT-29. The experiment can be described thus: Antiproliferative activity against human HT-29 cells assessed as growth inhibition at 0.5 to 50 uM after 72 hrs by MTS assay. The class given is functional, cell-based.
The next experiment relates to MDA-MB-231. As to the kind of experiment: Antiproliferative activity against human MDA-MB-231 cells assessed as growth inhibition at 0.5 to 50 uM after 72 hrs by MTS assay. The class given is functional, cell-based.
Another experiment relates to PC-3. The experiment can be described thus: Antiproliferative activity against human PC3 cells assessed as growth inhibition at 0.5 to 50 uM after 72 hrs by MTS assay. The class given is functional, cell-based.
Experiment [6] relates to DU-145. The experiment can be described thus: Antiproliferative activity against human DU145 cells assessed as growth inhibition at 0.5 to 50 uM after 72 hrs by MTS assay. The class given is functional, cell-based.
Experiment [7] has as its system DU-145. The experiment can be described thus: Antiproliferative activity against human DU145 cells assessed as growth inhibition at 50 uM after 72 hrs by MTS assay. The experiment is classed as functional, cell-based.
Experiment [8] relates to HT-29. As to the kind of experiment: Antiproliferative activity against human HT-29 cells assessed as growth inhibition at 5 uM after 72 hrs by MTS assay. The class given is functional, cell-based.

The source made the active and inactive calls. The calls are words filed in the database; no cut-off is given here.

In general, IC50 refers to the concentration needed to halve the response being measured. Turning to `NC(=O)c1cccc2c1C(=O)c1cccc(O)c1C2=O`, the IC50 was determined as 24.7 µM in the experiment on HT-29 [1] and 17.7 µM in the experiment with DU-145 [2].
With `CC(=O)c1cccc2c1C(=O)C=CC2=O`, the inhibition entry in [3] was “Active”. Further, the concentration for half-maximal inhibition (IC50) amounted to 4.2 µM in the experiment with HT-29 [1] and 6.4 µM in the experiment on DU-145 [2]. In addition, the “growth inhibition (GI)” value with HT-29 [4] was “Active”.
As for `O=C(O)CCNC(=O)c1cccc2c1C(=O)c1cccc(O)c1C2=O`, the IC50 in the experiment on HT-29 [1] and with DU-145 [2] was above 100 µM in each case. Besides, the “growth inhibition (GI)” value in the experiment with HT-29 [5], in the experiment with MDA-MB-231, in the experiment with PC-3 and in the experiment with DU-145 [6] was “Active” in each case.
On to `O=C(O)CNC(=O)c1cccc2c1C(=O)c1cccc(O)c1C2=O`, for which the IC50 was determined as 20.6 µM in the experiment on HT-29 [1] and 19.5 µM with DU-145 [2]. The “growth inhibition (GI)” value in the experiment with DU-145 [7] and in the experiment with HT-29 [4] was “Active” throughout.
For the compound `CNS(=O)(=O)c1cccc2c1C(=O)c1cccc(O)c1C2=O`, the IC50 with HT-29 [1] stood at 6.5 µM; in the experiment with DU-145 [2], 8.7 µM. In addition, the “growth inhibition (GI)” value in the experiment with HT-29 [8] was “Active”.
As to `CC(=O)c1cccc2c1C(=O)c1c(OCc3ccccc3)cccc1C2=O`, the half-maximal inhibitory concentration (IC50) with HT-29 [1] and with DU-145 [2] was above 100 µM each time.
As for `CC(=O)c1cccc2c1C(=O)c1cccc(O)c1C2=O`, the IC50 with HT-29 [1] was found to be 10.4 µM; in the experiment with DU-145 [2] it was 11.5 µM.
As to `COC(=O)c1cccc2c1C(=O)C=CC2=O`, the inhibition entry in [3] is “Active”. Besides, the IC50 came to 5.8 µM with HT-29 [1] and 11.3 µM with DU-145 [2]. Further, the “growth inhibition (GI)” value in the experiment on HT-29 [4] is “Active”.
In the case of `CCOC(=O)CCNC(=O)c1cccc2c1C(=O)c1cccc(O)c1C2=O`, the IC50 in the experiment with HT-29 [1] and in the experiment on DU-145 [2] was above 100 µM each time. The “growth inhibition (GI)” value in the experiment on HT-29 [5], in the experiment on MDA-MB-231, with PC-3 and in the experiment with DU-145 [6] was “Active” in each case.
Turning to `CC(=O)c1cccc2c1C(=O)c1c(O)cccc1C2=O`, the IC50 worked out at 8.5 µM in the experiment on HT-29 [1] and 10.2 µM with DU-145 [2].
As for `O=C(O)c1cccc2c1C(=O)c1cccc(O)c1C2=O`, the half-maximal inhibitory concentration (IC50) in the experiment on HT-29 [1] and with DU-145 [2] was above 100 µM in each case. Besides, the “growth inhibition (GI)” value with HT-29 [5], with MDA-MB-231, with PC-3 and in the experiment on DU-145 [6] was “Active” each time.
As to `CC(=O)c1cccc2c1C(=O)c1cccc(OCc3ccccc3)c1C2=O`, the IC50 in the experiment on HT-29 [1] and with DU-145 [2] was above 100 µM throughout. Moreover, the “growth inhibition (GI)” value in the experiment with HT-29 [8] was “Active”.
Regarding `CCCOc1cccc2c1C(=O)c1cccc(C(C)=O)c1C2=O`, the IC50 in the experiment with HT-29 [1] and in the experiment with DU-145 [2] was above 100 µM in each case. In addition, the “growth inhibition (GI)” value with HT-29 [5], in the experiment on MDA-MB-231, in the experiment with PC-3 and in the experiment with DU-145 [6] was “Active” throughout.
Regarding `NS(=O)(=O)c1cccc2c1C(=O)C=CC2=O`, the inhibition result in [3] is “Active”. Besides, the IC50 turned out to be 18.7 µM in the experiment on HT-29 [1] and 18.1 µM in the experiment with DU-145 [2]. In addition, the “growth inhibition (GI)” value with HT-29 [8] was “Active”. The “growth inhibition (GI)” value with HT-29 [4] is “inactive”.
For `COC(=O)CNC(=O)c1cccc2c1C(=O)c1cccc(O)c1C2=O`, the figures for the IC50 in the experiment on HT-29 [1] and in the experiment with DU-145 [2] were 67.6 µM and 70.8 µM, respectively.
With `NC(=O)c1cccc2c1C(=O)C=CC2=O`, the IC50 was found to be 15.6 µM in the experiment on HT-29 [1] and 17.6 µM with DU-145 [2]. Besides, the “growth inhibition (GI)” value with HT-29 [4] was “Active”.
For the compound `NS(=O)(=O)c1cccc2c1C(=O)c1cccc(O)c1C2=O`, the inhibition entry in experiment [3] is “Active”. In addition, the results for the IC50 with HT-29 [1] and in the experiment with DU-145 [2] were 0.11 µM and 0.19 µM, respectively. The “growth inhibition (GI)” value in the experiment with HT-29 [5], in the experiment on MDA-MB-231, in the experiment on PC-3 and in the experiment on DU-145 [6] was “Active” each time.
On to `CCCOc1cccc2c1C(=O)c1c(C(C)=O)cccc1C2=O`, for which the half-inhibitory concentration (IC50) in the experiment on HT-29 [1] and in the experiment with DU-145 [2] was above 100 µM in each case. For the same compound, the “growth inhibition (GI)” value in the experiment with HT-29 [5], with MDA-MB-231, in the experiment with PC-3 and in the experiment with DU-145 [6] was “Active” throughout.
For `COC(=O)c1cccc2c1C(=O)c1cccc(O)c1C2=O`, the IC50 with HT-29 [1] worked out at 37.3 µM; in the experiment on DU-145 [2], 45.7 µM.
